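Step 1: Grow cells in 96-well plates. Step 2: Expose to compound for 48 hours at 5 concentrations. Step 3: Interpolate endpoints linearly; if unreached, use highest concentration. Abbreviation: GI50, concentration required for 50% inhibition of growth. TGI denotes the concentration required for complete inhibition of growth.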

One assay relates to RPMI-8226 leukemia. The assay can be described thus: inhibition of tumour cell growth, NCI panel, 48 h.
Molecule `COc1cnc2cc(C(=O)O)c3c([N+](=O)[O-])cccc3c2c1` came in with a TGI greater than 100 µM.

For `Cc1ccc(S(=O)(=O)N(CCOc2ccc(/C(N)=N/Cl)cc2)CCOc2ccc(/C(N)=N\Cl)cc2)cc1`, the GI50 is 8.99 µM and the TGI was greater than 100 µM.

Consider `COc1ccc(C2=NN(C(=O)c3cc(OC)c(OC)c(OC)c3)C(c3ccc(C#N)cc3)C2)cc1OC` (centres undefined), for which the GI50 is 3.54 µM and the TGI is greater than 100 µM.

Regarding `CCOc1cccc(/C=N/NC(=O)c2ccccc2Nc2ccnc(C(F)(F)F)c2)c1O`, the GI50 is 0.332 µM.

In the case of `COc1ccc2c(c1)c(-c1nc(-c3cn(C)c4ncccc34)cs1)cn2CCCN1CCCCC1`, the GI50 is 2.19 µM and the TGI turned out to be 4.64 µM.

As for `CC1=C(C(=O)Nc2ccc3[nH]ncc3c2)C(c2ccc3ccccc3c2)CC(=O)N1` (centres undefined), the GI50 is greater than 25 µM and the TGI is greater than 25 µM.

Regarding `CC1OC(O[C@H]2C[C@@H](O)[C@]3(CO)[C@H]4[C@H](O)C[C@]5(C)[C@@H](C6=CC(=O)OC6)CC[C@]5(O)[C@@H]4CC[C@]3(O)C2)C(O)C(O)C1O` (some centres undefined), the GI50 was 26.5 µM and the TGI amounted to 54.5 µM.

In the case of `O=C1/C(=C/c2ccc(Br)cc2)C=C(c2ccccc2)N1CCc1ccccc1`, the GI50 was 9.44 µM and the TGI turned out to be 86.4 µM.

Turning to `CCCCC(=O)OCC1OC(n2cnc3c(=S)nc[nH]c32)C(OC(=O)CCCC)C1OC(=O)CCCC` (centres undefined), the GI50 was 5.81 µM and the TGI is greater than 100 µM.

In the case of `O=c1oc2ccc(F)cc2c(=O)n1-c1ccc(F)cc1F`, the GI50 is 2.22 µM and the TGI turned out to be 7.09 µM.

With `O=C(O)CCCCC(CCSCc1ccccc1)SCc1ccccc1` (centres undefined), the GI50 is 30.6 µM and the TGI was determined as 96.7 µM.

In the case of `CC1=C(CCCNS(C)(=O)=O)C2=C(C)C3(CC3)[C@@](C)(O)C(=O)C2=C1`, the GI50 was greater than 64.5 µM and the TGI was greater than 100 µM.

For the molecule `O=NN(Cc1ccc(Cl)cc1)C(C(=O)O)c1ccccc1` (centres undefined), the TGI is greater than 100 µM.

Another assay concerns 786-0 renal. The assay can be described thus: inhibition of tumour cell growth, NCI panel, 48 h.
`COc1cnc2cc(C(=O)O)c3c([N+](=O)[O-])cccc3c2c1` yielded a TGI greater than 100 µM.

Consider `Cc1ccc(S(=O)(=O)N(CCOc2ccc(/C(N)=N/Cl)cc2)CCOc2ccc(/C(N)=N\Cl)cc2)cc1`, for which the GI50 is 34600 nM and the TGI was greater than 100 µM.

`COc1ccc(C2=NN(C(=O)c3cc(OC)c(OC)c(OC)c3)C(c3ccc(C#N)cc3)C2)cc1OC` (centres undefined): the GI50 was 2140 nM and the TGI was greater than 48.8 µM.

As to `CCOc1cccc(/C=N/NC(=O)c2ccccc2Nc2ccnc(C(F)(F)F)c2)c1O`, the GI50 is 1320 nM and the TGI stood at 24 µM.

As to `COc1ccc2c(c1)c(-c1nc(-c3cn(C)c4ncccc34)cs1)cn2CCCN1CCCCC1`, the GI50 was 1590 nM and the TGI amounted to 2.95 µM.

With `CC1=C(C(=O)Nc2ccc3[nH]ncc3c2)C(c2ccc3ccccc3c2)CC(=O)N1` (centres undefined), the GI50 was 15100 nM and the TGI was greater than 25 µM.

Turning to `CC1OC(O[C@H]2C[C@@H](O)[C@]3(CO)[C@H]4[C@H](O)C[C@]5(C)[C@@H](C6=CC(=O)OC6)CC[C@]5(O)[C@@H]4CC[C@]3(O)C2)C(O)C(O)C1O` (some centres undefined), the GI50 is 19900 nM and the TGI worked out at 36.3 µM.

As for `O=C1/C(=C/c2ccc(Br)cc2)C=C(c2ccccc2)N1CCc1ccccc1`, the GI50 is 647 nM and the TGI was determined as 2.8 µM.

Regarding `CCCCC(=O)OCC1OC(n2cnc3c(=S)nc[nH]c32)C(OC(=O)CCCC)C1OC(=O)CCCC` (centres undefined), the GI50 is 2240 nM and the TGI was greater than 100 µM.

For the molecule `O=c1oc2ccc(F)cc2c(=O)n1-c1ccc(F)cc1F`, the GI50 was 3130 nM and the TGI is 11.4 µM.

With `O=C(O)CCCCC(CCSCc1ccccc1)SCc1ccccc1` (centres undefined), the GI50 is 64200 nM and the TGI was greater than 100 µM.

As to `CC1=C(CCCNS(C)(=O)=O)C2=C(C)C3(CC3)[C@@](C)(O)C(=O)C2=C1`, the GI50 is 816 nM and the TGI is 6.32 µM.

Regarding `O=NN(Cc1ccc(Cl)cc1)C(C(=O)O)c1ccccc1` (centres undefined), the TGI was greater than 100 µM.

Another assay relates to MCF7 breast. The assay can be described thus: inhibition of tumour cell growth, NCI panel, 48 h.
With `COc1cnc2cc(C(=O)O)c3c([N+](=O)[O-])cccc3c2c1`, the TGI was greater than 100 µM.

For `Cc1ccc(S(=O)(=O)N(CCOc2ccc(/C(N)=N/Cl)cc2)CCOc2ccc(/C(N)=N\Cl)cc2)cc1`, the GI50 is 8080 nM and the TGI was greater than 100 µM.

With `COc1ccc(C2=NN(C(=O)c3cc(OC)c(OC)c(OC)c3)C(c3ccc(C#N)cc3)C2)cc1OC` (centres undefined), the GI50 was 512 nM and the TGI was greater than 88.9 µM.

In the case of `CCOc1cccc(/C=N/NC(=O)c2ccccc2Nc2ccnc(C(F)(F)F)c2)c1O`, the GI50 was 340 nM and the TGI worked out at 25.4 µM.

`COc1ccc2c(c1)c(-c1nc(-c3cn(C)c4ncccc34)cs1)cn2CCCN1CCCCC1`: the GI50 is 1700 nM and the TGI was 3.32 µM.

For `CC1=C(C(=O)Nc2ccc3[nH]ncc3c2)C(c2ccc3ccccc3c2)CC(=O)N1` (centres undefined), the GI50 was 24400 nM and the TGI was greater than 25 µM.

Turning to `CC1OC(O[C@H]2C[C@@H](O)[C@]3(CO)[C@H]4[C@H](O)C[C@]5(C)[C@@H](C6=CC(=O)OC6)CC[C@]5(O)[C@@H]4CC[C@]3(O)C2)C(O)C(O)C1O` (some centres undefined), the GI50 is 22900 nM and the TGI worked out at 42.7 µM.

Consider `O=C1/C(=C/c2ccc(Br)cc2)C=C(c2ccccc2)N1CCc1ccccc1`, for which the GI50 is 3420 nM and the TGI came to 32.7 µM.

For `CCCCC(=O)OCC1OC(n2cnc3c(=S)nc[nH]c32)C(OC(=O)CCCC)C1OC(=O)CCCC` (centres undefined), the GI50 was 1130 nM and the TGI was greater than 100 µM.

For `O=c1oc2ccc(F)cc2c(=O)n1-c1ccc(F)cc1F`, the GI50 was 2870 nM and the TGI is greater than 100 µM.

For the molecule `O=C(O)CCCCC(CCSCc1ccccc1)SCc1ccccc1` (centres undefined), the GI50 is 58800 nM and the TGI was greater than 100 µM.

On to `CC1=C(CCCNS(C)(=O)=O)C2=C(C)C3(CC3)[C@@](C)(O)C(=O)C2=C1`, for which the GI50 is 2010 nM and the TGI is greater than 100 µM.

Consider `O=NN(Cc1ccc(Cl)cc1)C(C(=O)O)c1ccccc1` (centres undefined), for which the TGI was greater than 100 µM.

In the next assay the test system is SR leukemia. The assay can be described thus: inhibition of tumour cell growth, NCI panel, 48 h.
The molecule `COc1cnc2cc(C(=O)O)c3c([N+](=O)[O-])cccc3c2c1` returned a TGI greater than 100 µM.

With `Cc1ccc(S(=O)(=O)N(CCOc2ccc(/C(N)=N/Cl)cc2)CCOc2ccc(/C(N)=N\Cl)cc2)cc1`, the GI50 is 27.8 µM and the TGI was greater than 100 µM.

With `COc1ccc(C2=NN(C(=O)c3cc(OC)c(OC)c(OC)c3)C(c3ccc(C#N)cc3)C2)cc1OC` (centres undefined), the GI50 was 1.13 µM and the TGI was greater than 100 µM.

In the case of `CCOc1cccc(/C=N/NC(=O)c2ccccc2Nc2ccnc(C(F)(F)F)c2)c1O`, the GI50 was 0.0576 µM and the TGI worked out at 0.363 µM.

On to `COc1ccc2c(c1)c(-c1nc(-c3cn(C)c4ncccc34)cs1)cn2CCCN1CCCCC1`, for which the GI50 was 1.81 µM and the TGI worked out at 3.77 µM.

Consider `CC1=C(C(=O)Nc2ccc3[nH]ncc3c2)C(c2ccc3ccccc3c2)CC(=O)N1` (centres undefined), for which the GI50 is greater than 25 µM and the TGI was greater than 25 µM.

`CC1OC(O[C@H]2C[C@@H](O)[C@]3(CO)[C@H]4[C@H](O)C[C@]5(C)[C@@H](C6=CC(=O)OC6)CC[C@]5(O)[C@@H]4CC[C@]3(O)C2)C(O)C(O)C1O` (some centres undefined): the GI50 was 10.2 µM and the TGI amounted to 38 µM.

For `O=C1/C(=C/c2ccc(Br)cc2)C=C(c2ccccc2)N1CCc1ccccc1`, the GI50 is 11.6 µM and the TGI is greater than 100 µM.

With `CCCCC(=O)OCC1OC(n2cnc3c(=S)nc[nH]c32)C(OC(=O)CCCC)C1OC(=O)CCCC` (centres undefined), the GI50 is 7.5 µM and the TGI was greater than 100 µM.

As to `O=c1oc2ccc(F)cc2c(=O)n1-c1ccc(F)cc1F`, the GI50 was 3.69 µM and the TGI was greater than 100 µM.

As to `O=C(O)CCCCC(CCSCc1ccccc1)SCc1ccccc1` (centres undefined), the GI50 was 36.1 µM and the TGI is greater than 100 µM.

As for `CC1=C(CCCNS(C)(=O)=O)C2=C(C)C3(CC3)[C@@](C)(O)C(=O)C2=C1`, the GI50 is 36.2 µM and the TGI was greater than 100 µM.

On to `O=NN(Cc1ccc(Cl)cc1)C(C(=O)O)c1ccccc1` (centres undefined), for which the TGI is greater than 100 µM.

Another assay concerns SW-620 colon. The assay can be described thus: inhibition of tumour cell growth, NCI panel, 48 h.
The molecule `COc1cnc2cc(C(=O)O)c3c([N+](=O)[O-])cccc3c2c1` showed a TGI greater than 100 µM.

As for `Cc1ccc(S(=O)(=O)N(CCOc2ccc(/C(N)=N/Cl)cc2)CCOc2ccc(/C(N)=N\Cl)cc2)cc1`, the GI50 was 26.9 µM and the TGI is greater than 100 µM.

For `COc1ccc(C2=NN(C(=O)c3cc(OC)c(OC)c(OC)c3)C(c3ccc(C#N)cc3)C2)cc1OC` (centres undefined), the GI50 was 1.26 µM and the TGI is greater than 100 µM.

For `CCOc1cccc(/C=N/NC(=O)c2ccccc2Nc2ccnc(C(F)(F)F)c2)c1O`, the GI50 was 1.23 µM and the TGI was greater than 100 µM.

Consider `COc1ccc2c(c1)c(-c1nc(-c3cn(C)c4ncccc34)cs1)cn2CCCN1CCCCC1`, for which the GI50 is 1.9 µM and the TGI came to 3.63 µM.

Take `CC1=C(C(=O)Nc2ccc3[nH]ncc3c2)C(c2ccc3ccccc3c2)CC(=O)N1` (centres undefined): the GI50 was 9.97 µM and the TGI was greater than 25 µM.

In the case of `CC1OC(O[C@H]2C[C@@H](O)[C@]3(CO)[C@H]4[C@H](O)C[C@]5(C)[C@@H](C6=CC(=O)OC6)CC[C@]5(O)[C@@H]4CC[C@]3(O)C2)C(O)C(O)C1O` (some centres undefined), the GI50 is 22.5 µM and the TGI was 48.7 µM.

Take `O=C1/C(=C/c2ccc(Br)cc2)C=C(c2ccccc2)N1CCc1ccccc1`: the GI50 is 5.34 µM and the TGI was greater than 100 µM.

Regarding `CCCCC(=O)OCC1OC(n2cnc3c(=S)nc[nH]c32)C(OC(=O)CCCC)C1OC(=O)CCCC` (centres undefined), the GI50 was 1.51 µM and the TGI was greater than 100 µM.

For `O=c1oc2ccc(F)cc2c(=O)n1-c1ccc(F)cc1F`, the GI50 was 3.33 µM and the TGI was determined as 80.6 µM.

Consider `O=C(O)CCCCC(CCSCc1ccccc1)SCc1ccccc1` (centres undefined), for which the GI50 is greater than 70 µM and the TGI was greater than 100 µM.

Turning to `CC1=C(CCCNS(C)(=O)=O)C2=C(C)C3(CC3)[C@@](C)(O)C(=O)C2=C1`, the GI50 was 55.5 µM and the TGI was greater than 100 µM.

Molecule `O=NN(Cc1ccc(Cl)cc1)C(C(=O)O)c1ccccc1` (centres undefined) had a TGI greater than 100 µM.

(Values after PubChem BioAssay (NCI).)
